Experiments:
[1] = Binding affinity against nitrocefin
[2] = pKa in water at 30 degree C; format: physicochemical

Ki [1]	pKa [2]	SMILES
720 µM		CC1=C(C(=O)O)N2C(=S)[C@@H](NC(=O)Cc3ccccc3)[C@H]2SC1
	10.1	CC1=C(C(=O)O)N[C@@H](C2NC(=O)C(c3ccccc3)N=C2S)SC1 (some centres not stated)

From ChEMBL document CHEMBL1147497, “The inhibition of metallo-beta-lactamase by thioxo-cephalosporin derivatives” (Bioorg Med Chem Lett, 2004)
